Counter-ions that a name gives are not always drawn. Like-named read-outs stand apart in the source and are kept apart here.
Assays:
LD50 in mice = settings: mouse, in vivo
plasmodium berghei = experiment: suppression of parasitemia in mice infected with plasmodium berghei; format: in vivo; settings: for ED50: Plasmodium berghei, sc; for ED50 / Mean % Parasitemia / Mean % Suppression / % died: mice
Method: Five representative amidinoureas were tested in mice infected with plasmodium berghei. The five compounds tested are the following:
Groups of 10 mice each were used in seven doses totaling 70 mice per compound. The protozoal infection was induced by intraperitoneal injection of 5,000,000 parasitized blood cells from a donor. The compound was administered subcutaneously in doses ranging from 0.15 to 10 mg. per kg., suspended on 0.5% methacel solution (doses expressed as base). The compound was repeatedly injected on the day of inoculation (day 1), day 2 and day 3. Blood smears were performed on days 4, 5, 6 and 10.
Untreated control but infected mice developed fulminating parasitemia of as high as 35% on day 10 and deaths occurred from day 12 to 14.

[1] = s.c., 1.0 mg/kg on days 1-3, 4th day
[2] = s.c., 1.0 mg/kg on days 1-3, 5th day
[3] = s.c., 1.0 mg/kg on days 1-3, 6th day
[4] = s.c., 1.0 mg/kg on days 1-3, 10th day
[5] = s.c., 2.0 mg/kg on days 1-3, 4th day
[6] = s.c., 2.0 mg/kg on days 1-3, 5th day
[7] = s.c., 2.0 mg/kg on days 1-3, 6th day
[8] = s.c., 2.0 mg/kg on days 1-3, 10th day
[9] = s.c., 10.0 mg/kg on days 1-3, 4th day
[10] = s.c., 10.0 mg/kg on days 1-3, 5th day
[11] = s.c., 10.0 mg/kg on days 1-3, 6th day
[12] = s.c., 10.0 mg/kg on days 1-3, 10th day
[13] = s.c., .15 mg/kg on days 1-3, 4th day
[14] = s.c., .15 mg/kg on days 1-3, 5th day
[15] = s.c., .15 mg/kg on days 1-3, 6th day
[16] = s.c., .15 mg/kg on days 1-3, 10th day
[17] = s.c., .20 mg/kg on days 1-3, 4th day
[18] = s.c., .20 mg/kg on days 1-3, 5th day
[19] = s.c., .20 mg/kg on days 1-3, 6th day
[20] = s.c., .20 mg/kg on days 1-3, 10th day
[21] = s.c., .30 mg/kg on days 1-3, 4th day
[22] = s.c., .30 mg/kg on days 1-3, 5th day
[23] = s.c., .30 mg/kg on days 1-3, 6th day
[24] = s.c., .30 mg/kg on days 1-3, 10th day
[25] = s.c., .50 mg/kg on days 1-3, 4th day
[26] = s.c., .50 mg/kg on days 1-3, 5th day
[27] = s.c., .50 mg/kg on days 1-3, 6th day
[28] = s.c., .50 mg/kg on days 1-3, 10th day

Molecule `CNC(=N)NC(=O)Nc1c(C)cccc1Br` [Compound B, 1-(2-bromo-6-methylphenyl)-3-methylamidino)urea hydrochloride] has an LD50 (LD50 in mice) of 82 to 135 mg/kg, an ED50 (plasmodium berghei; 96 h, s.c., levels of parasitemia, 4th day, read-out: SED50 (Suppressant Effective Dose50)) of 1.87 mg/kg and an ED50 (plasmodium berghei; 120 h, s.c., levels of parasitemia, 5th day, read-out: SED50 (Suppressant Effective Dose50)) of 1.87 mg/kg. The ED50 (plasmodium berghei; 144 h, s.c., levels of parasitemia, 6th day, read-out: SED50 (Suppressant Effective Dose50)) was 1.66 mg/kg, the ED50 (plasmodium berghei; 240 h, s.c., levels of parasitemia, 10th day, read-out: SED50 (Suppressant Effective Dose50)) was 1.87 mg/kg and the ED50 (plasmodium berghei; day 4 to day 10, read-out: HIGHEST SED50) was 1.87 mg/kg. The ED50 (plasmodium berghei; day 4 to day 10, read-out: LOWEST SED50) was 1.66 mg/kg, the “FACTOR (HIGHEST SED50 ÷ LOWEST SED50)” value (plasmodium berghei; factor of change, day 4 to day 10, duration of action) was 1.12 and the “Mean % Parasitemia” value (plasmodium berghei; [1]) was 3.75%. The “Mean % Suppression” value (plasmodium berghei; [1]) was 28.6%, the “Mean % Parasitemia” value (plasmodium berghei; [2]) was 4.30% and the “Mean % Suppression” value (plasmodium berghei; [2]) was 41.1%. For the same molecule, the “Mean % Parasitemia” value (plasmodium berghei; [3]) was 5.10%, the “Mean % Suppression” value (plasmodium berghei; [3]) was 45.2% and the “Mean % Parasitemia” value (plasmodium berghei; [4]) was 23.2%. The “Mean % Suppression” value (plasmodium berghei; [4]) was 34.6%, the “% died” value (plasmodium berghei; s.c., 1.0 mg/kg on days 1-3, 12th day) was 0% and the “% died” value (plasmodium berghei; s.c., 1.0 mg/kg on days 1-3, 13th day) was 20%. The “% died” value (plasmodium berghei; s.c., 1.0 mg/kg on days 1-3, 14th day) was 20%, the “Mean % Parasitemia” value (plasmodium berghei; [5]) was 2.50% and the “Mean % Suppression” value (plasmodium berghei; [5]) was 52.3%. For the same molecule, the “Mean % Parasitemia” value (plasmodium berghei; [6]) was 3.40%, the “Mean % Suppression” value (plasmodium berghei; [6]) was 53.2% and the “Mean % Parasitemia” value (plasmodium berghei; [7]) was 4.50%. For the same molecule, the “Mean % Suppression” value (plasmodium berghei; [7]) was 51.6%, the “Mean % Parasitemia” value (plasmodium berghei; [8]) was 19.8% and the “Mean % Suppression” value (plasmodium berghei; [8]) was 44.2%. The “% died” value (plasmodium berghei; s.c., 2.0 mg/kg on days 1-3, 12th day) was 0%, the “% died” value (plasmodium berghei; s.c., 2.0 mg/kg on days 1-3, 13th day) was 0% and the “% died” value (plasmodium berghei; s.c., 2.0 mg/kg on days 1-3, 14th day) was 20%. The “Mean % Parasitemia” value (plasmodium berghei; [9]) was 0.25%, the “Mean % Suppression” value (plasmodium berghei; [9]) was 96.2% and the “Mean % Parasitemia” value (plasmodium berghei; [10]) was 0.50%. The “Mean % Suppression” value (plasmodium berghei; [10]) was 94.0%, the “Mean % Parasitemia” value (plasmodium berghei; [11]) was 0.05% and the “Mean % Suppression” value (plasmodium berghei; [11]) was 99.6%. For the same molecule, the “Mean % Parasitemia” value (plasmodium berghei; [12]) was 0%, the “Mean % Suppression” value (plasmodium berghei; [12]) was 100.0% and the “% died” value (plasmodium berghei; s.c., 10.0 mg/kg on days 1-3, 12th day) was 0%. For the same molecule, the “% died” value (plasmodium berghei; s.c., 10.0 mg/kg on days 1-3, 13th day) was 0%, the “% died” value (plasmodium berghei; s.c., 10.0 mg/kg on days 1-3, 14th day) was 0% and the “Mean % Parasitemia” value (plasmodium berghei; [13]) was 5.00%. The “Mean % Suppression” value (plasmodium berghei; [13]) was 4.8%, the “Mean % Parasitemia” value (plasmodium berghei; [14]) was 7.00% and the “Mean % Suppression” value (plasmodium berghei; [14]) was 4.1%. The “Mean % Parasitemia” value (plasmodium berghei; [15]) was 7.80%, the “Mean % Suppression” value (plasmodium berghei; [15]) was 16.1% and the “Mean % Parasitemia” value (plasmodium berghei; [16]) was 34.1%. The “Mean % Suppression” value (plasmodium berghei; [16]) was 3.9%, the “% died” value (plasmodium berghei; s.c., .15 mg/kg on days 1-3, 12th day) was 20% and the “% died” value (plasmodium berghei; s.c., .15 mg/kg on days 1-3, 13th day) was 20%. The “% died” value (plasmodium berghei; s.c., .15 mg/kg on days 1-3, 14th day) was 20%, the “Mean % Parasitemia” value (plasmodium berghei; [17]) was 5.00% and the “Mean % Suppression” value (plasmodium berghei; [17]) was 4.8%. The “Mean % Parasitemia” value (plasmodium berghei; [18]) was 6.90%, the “Mean % Suppression” value (plasmodium berghei; [18]) was 5.5% and the “Mean % Parasitemia” value (plasmodium berghei; [19]) was 7.40%. The “Mean % Suppression” value (plasmodium berghei; [19]) was 20.4%, the “Mean % Parasitemia” value (plasmodium berghei; [20]) was 30.2% and the “Mean % Suppression” value (plasmodium berghei; [20]) was 14.9%. The “% died” value (plasmodium berghei; s.c., .20 mg/kg on days 1-3, 12th day) was 0%, the “% died” value (plasmodium berghei; s.c., .20 mg/kg on days 1-3, 13th day) was 20% and the “% died” value (plasmodium berghei; s.c., .20 mg/kg on days 1-3, 14th day) was 40%. The “Mean % Parasitemia” value (plasmodium berghei; [21]) was 4.00%, the “Mean % Suppression” value (plasmodium berghei; [21]) was 23.8% and the “Mean % Parasitemia” value (plasmodium berghei; [22]) was 6.60%. For the same molecule, the “Mean % Suppression” value (plasmodium berghei; [22]) was 9.6%, the “Mean % Parasitemia” value (plasmodium berghei; [23]) was 6.90% and the “Mean % Suppression” value (plasmodium berghei; [23]) was 25.8%. For the same molecule, the “Mean % Parasitemia” value (plasmodium berghei; [24]) was 29.1%, the “Mean % Suppression” value (plasmodium berghei; [24]) was 18.0% and the “% died” value (plasmodium berghei; s.c., .30 mg/kg on days 1-3, 12th day) was 0%. For the same molecule, the “% died” value (plasmodium berghei; s.c., .30 mg/kg on days 1-3, 13th day) was 0%, the “% died” value (plasmodium berghei; s.c., .30 mg/kg on days 1-3, 14th day) was 40% and the “Mean % Parasitemia” value (plasmodium berghei; [25]) was 4.00%. The “Mean % Suppression” value (plasmodium berghei; [25]) was 23.8%, the “Mean % Parasitemia” value (plasmodium berghei; [26]) was 5.10% and the “Mean % Suppression” value (plasmodium berghei; [26]) was 30.1%. The “Mean % Parasitemia” value (plasmodium berghei; [27]) was 5.80%, the “Mean % Suppression” value (plasmodium berghei; [27]) was 37.6% and the “Mean % Parasitemia” value (plasmodium berghei; [28]) was 26.7%. For the same molecule, the “Mean % Suppression” value (plasmodium berghei; [28]) was 24.8%, the “% died” value (plasmodium berghei; s.c., .50 mg/kg on days 1-3, 12th day) was 20% and the “% died” value (plasmodium berghei; s.c., .50 mg/kg on days 1-3, 13th day) was 40%. For the same molecule, the “% died” value (plasmodium berghei; s.c., .50 mg/kg on days 1-3, 14th day) was 60%.

From patent US4340609A, “Amidinourea derivative veterinary compositions for suppression of parasitemia” (William H. Rorer, Inc., priority 1980, dated 1982)
